The structures appear in SMILES notation.

Holding throughout (type): cell-based
For assay [1], the system named is HCV genotype 1B containing 5-2 cells. Nature of the assay: plate-based RNA content assay. As to conditions: Hepatitis C virus; HCV genotype 1B 5-2 cells, plate-based RNA content assay (data not shown). As to the method: The EC50 of Compound against HCV genotype 1B containing 5-2 cells was determined to be 0.7 nM in plate-based RNA content assays (data not shown). A dose escalation experiment in which HCV genotype 1B 5-2 cells were dosed QD over three days at 0.3×EC50, 1×EC50, 3×EC50 and 10×EC50 and a dose fractionation experiment in which cells were dosed QD, BID or TID to obtain a constant AUC of ˜16.8 nM were performed using the HulaCell system. Results of the reporter assays for the dose escalation experiment are shown in FIGS. 6A-B. The combined PK results of the dose escalation experiment area shown in FIG. 7.

Assay [2] has as its system HCV genotype 1B (5-2) replicon cell line. Nature of the assay: HulaCell in vitro PK-PD PK driver experiments (dose escalation and dose fractionation; luciferase reporter and RT-PCR viral RNA). As to conditions: adjusted to free fraction, Day 3. As to the method:
Three QD infusions of the HCV NS3/4 protease inhibitor, (1aR,5S,8S,10R,22aR)-N-[(1R,2S)-1-[(Cyclopropylsulfonamido)carbonyl]-2-ethenylcyclopropyl]-14-methoxy-5-(2-methylpropan-2-yl)-3,6-dioxo-1,1a,3,4,5,6,9,10,18,19,20,21,22,22a-tetradecahydro-8H-7,10-methanocyclopropa[18,19][1,10,3,6]dioxadiazacyclononadecino[11,12-b]quinoxaline-8-carboxamide (“Compound”; See U.S. Pat. No. 7,973,040) were tested in the Hula Cell using the in vitro PK-PD software program and PK was monitored by collecting samples at multiple time point during each infusion. In addition, microcarrier beads were also collected daily to measure changes in viral load by RT-PCR Taqman analysis of cell lysates.
A frozen vial of HCV genotype 1B replicon cells (5-2 cells which contain genotype 1B replicon and a Luciferase reporter) was thawed and seeded into one T-75 flask. At confluency, the flask was trypsinized and cells resuspended to 6×10^6 cells in 9.5 ml DMEM containing 10% FBS and 0.5 mg/ml G418 in a 50 ml LeviTube™. 0.5 ml of collagen-coated microcarrier bead slurry mixture (50% V/V) was added to the 9.5 ml of cells and attachment was performed using BioWiggler™ microcarrier loading program (RPM=60; 1 min mixing; 40 min settle (repeat 6x=4 hr total)). Continuous mixing at 60 rpm was performed overnight. The next morning, 30 ml of fresh media was added to the culture. The microcarriers and attached cells were allowed to settle before removing 30 ml of media with any unattached cells from the LeviTube™. Afterward, 30 ml of fresh media was added back to the LeviTube™ to make the final volume 40 ml. […]
PK/PD samples were collected on Day 0, Day 1, Day 2, and Day 3 directly from the 50 ml LeviTube™ at specified time points. […] Compound concentration in the PK samples was determined by Mass Spectroscopy analysis.
Samples for PD determination (viral load content by RT-PCR) were washed once with 1 ml PBS (w/out Mg^2+ and Ca^2+). […] Viral RNA content of the cells was determined by quantitative PCR. […]
For orientation: A reporter such as luciferase makes a cellular process visible.

The test system is the same in assay [3]. The assay can be described thus: BelloCell in vitro PK-PD PK driver experiments. As to conditions: adjusted to free fraction, Day 3. An excerpt:
A 4-tube HulaCell system was validated by comparing the results for the Compound PK driver experiments, previously performed in the BelloCell® (data not shown), with the results obtained from dose escalation and dose fractionation studies performed using the HulaCell system.
Calculated PK Driver parameters from HulaCell experiments, compared to those determined in BelloCell experiments are shown in Table 1.
The Hula Cell was successfully used to determine the Maximum efficacy threshold values at Day 3 for Compound in the HCV genotype 1B (5-2) replicon cell line. The PK correlation curves were remarkably similar between the BelloCell® and Hula cell with the only noticeable differences being the prediction of the % T>EC50 and the AUC.

A word on the EC50: it is the concentration needed to bring the measured effect to its halfway point. Read a low EC50 as a more potent agent. The compound `C=C[C@@H]1C[C@]1(NC(=O)[C@@H]1C[C@@H]2CN1C(=O)[C@H](C(C)(C)C)NC(=O)O[C@@H]1C[C@H]1CCCCCc1nc3ccc(OC)cc3nc1O2)C(=O)NS(=O)(=O)C1CC1` [Compound, (1aR,5S,8S,10R,22aR)-N-[(1R,2S)-1-[(Cyclopropylsulfonamido)carbonyl]-2-ethenylcyclopropyl]-14-methoxy-5-(2-methylpropan-2-yl)-3,6-dioxo-1,1a,3,4,5,6,9,10,18,19,20,21,22,22a-tetradecahydro-8H-7,10-methanocyclopropa[18,19][1,10,3,6]dioxadiazacyclononadecino[11,12-b]quinoxaline-8-carboxamide] came in with an EC50 in assay [1] of 0.7 nM. In assay [2], the “Maximum Efficacy Threshold % T > EC50” value was at least 84%, the “Maximum Efficacy Threshold AUC0-24” value was at least 23.7 nM·h and the “Maximum Efficacy Threshold Cmin” value is on record as at least 0.10 nM. Moreover, in assay [3], the “Maximum Efficacy Threshold % T > EC50” value is given as at least 50%, the “Maximum Efficacy Threshold AUC0-24” value was at least 8.4 nM·h and the “Maximum Efficacy Threshold Cmin” value is listed as at least 0.11 nM.
